Data reported in US20150328109A1, “DERMAL COMPOSITIONS CONTAINING UNNATURAL HYGROSCOPIC AMINO ACIDS” (MEDPHARM LIMITED, priority 2012, published 2015).

Tests used:
Normal RHE tissue = experiment: Tissue viability (MTT) of normal RHE tissue during 6 day treatment; assay type: cell-based, human; details: 10% w/v, n = 1
Procedure: In this investigation two types of RHE tissues were used, which were healthy and psoriatic tissue sourced from the MatTek Corporation (Ashland, Mass.). For simplicity the protocol below refers to both tissue types as RHE tissues and all media as assay medium as both tissues were treated in the same manner. The only exception was that two different types of media were required for the different types of tissue (healthy and psoriatic tissues).
• (i) At the end of the equilibration period, the media for each well was removed then the tissues were lifted and placed on culture stands and fresh pre-warmed (37° C.) assay medium (5 mL) was added to the well. • (ii) Using a positive displacement pipette, the test solutions 10% w/v, N-H-S(N-hydroxyserine) in water, […], N-H-G (N-hydroxyglycine) in water, 10% w/v, L-h-S (L-homoserine) in water and 10% w/v, combination 1:1:1 (N-H-S:N-H-G: L-h-S) in water were dispensed (50±0.5 μL) onto the top of the RHE tissue. The solutions or controls were then distributed over the surface of the RHE tissues using a sterile glass rod. • (iii) The lid was placed on the well plate containing the RHE tissue and the tissues were returned to the incubator (37° C., 5% CO2) 48 h between applications.
• (i) Every 48 h culture media for the RHE tissues was removed from the 6 well plates and transferred into tubes stored (−20° C.) for cytokine analysis. • (ii) Fresh pre-warmed (37° C.) assay medium (5 mL) was added to each tissue using an automatic pipette. • (iii) From each treatment 1 tissue was removed for viability assessment. • (iv) The RHE tissues were subsequently rinsed with 100 μL of PBS to remove the residual solution from the epidermal surface. • (v) Using a positive displacement pipette, the solutions 10% w/v, N-H-S in water, 1% w/v, N-H-G in water, 10% w/v, L-h-S in water and 10% w/v, combination 1:1:1 (N-H-S:N-H-G:L-h-S) were dispensed (50±0.5 μL) onto the top of the RHE tissue. The solutions or controls were then distributed over the surface of the RHE tissues using a sterile glass rod. • (vi) The lid was placed on the well plate containing the RHE tissue and the tissues were returned to the incubator (37° C., 5% CO2) 48 h between applications at t=0, 48 and 96 h.
To determine the viability of the RHE tissue post application of the solutions and controls, the following procedure was used: • (i) The required wells in 24-well plates were filled with 300 μL MTT solution and protected from light. • (ii) The tissues were removed from the post treatment incubation plates and excess solutions and controls were removed with sterile cotton swabs. • (iii) The RHE tissue was subsequently rinsed with 1000 μL of PBS five times to remove the residual solution from the epidermal surface. • (iv) The tissue from Step (iii) was blotted dry with cotton swabs. • (v) The treated tissues from Step (iv) were transferred into wells in 24-well plates pre-filled with MTT solution (300 μL). The plates were incubated for 3 h (+/−5 min) at 37° C., 5% CO2 and 95% humidified atmosphere. • (vi) The treated tissues were subsequently transferred into a new plate filled with 1 mL of extractant solution. • (vii) The plates were sealed using Parafilm® to stop evaporation and protected from light using foil before extract at 2-8° C. to minimise evaporation. • (viii) Following extraction the RHE tissue were removed from the wells and an additional 1 mL of extractant solution was added. Using a pipette the extraction solution was mixed and made visually homogenous. • (ix) The solution from Step (viii) was transferred in to n=3 wells (200 μL per well) using an automatic pipette of a 96 well plate and the optical density was measured at a wavelength of 570 nm.

RHE tissues = experiment: RHE irritation assessment Method 2: Mattek's MTT effective time (ET-50) assay; assay type: cell-based, human; details: for ET-50 (exposure time to reduce viability to 50% of the control): 1% w/v N-H-G in water, dosing periods 2, 6 and 24 h
Description: Method 1 was used to investigate the potential for alpha-hydroxylglycine (α-H-G) and L-homoserine (L-h-S) to cause skin irritation. The protocol is primarily designed and validated for single compounds rather than solutions. Therefore to provide further insight into the potential of N-hydroxyserine and N-hydroxylglycine to cause skin irritation a second protocol was investigated using Mattek's MTT effective time (ET-50) assay which is designed to test mixtures of compounds. In addition two commercially available amino acid related compound (L-serine and glycine) were selected and tested as comparators for N-hydroxyserine and N-hydroxylglycine. […] As a general guideline, the following groupings can be used in assigning expected in vivo irritancy responses based on the ET-50 results obtained: The irritation assessment of the solutions was performed using the protocol described below. Each of the test solutions; […] Damaged tissues were discarded. • (iii) The tissue were transferred into the assay medium and incubated at 37° C., 5% CO2 until the application of the test solutions; […] The working MTT solution was prepared using the following procedure: • (i) MTT concentrate was removed from the freezer and allowed to thaw. The concentrate was diluted with the MTT diluent solution (1 mL of concentrate to 4 mL of MTT diluent solution). • (ii) MTT solution from Step (i) was centrifuged at a g-force of 300 for 5 min to remove any particulates. • (iii) The supernatant of the MTT solution from Step (ii) was stored in the dark at 4° C. for a maximum period of 24 h and used as required. […] The plates were incubated for 3 h (+/−5 min) at 37° C., 5% CO2 and 95% humidified atmosphere. • (vi) The treated tissues were subsequently transferred into a new plate filled with 1 mL of extractant solution. • (vii) The plates were sealed using Parafilm® to stop evaporation and protected from light using foil before extract at 2-8° C. to minimise evaporation. • (viii) Following extraction the RHE tissue were removed from the wells and an additional 1 mL of extractant solution was added. Using a pipette the extraction solution was mixed and made visually homogenous. • (ix) The solution from Step (viii) was transferred in to n=3 wells (200 μL per well) using an automatic pipette of a 96 well plate and the optical density was measured at a wavelength of 570 nm.

| SMILES | Normal RHE tissue viability as a percentage of untreated control (%) (Normal RHE tissue; 2 days in treatments) | Normal RHE tissue viability as a percentage of untreated control (%) (Normal RHE tissue; 4 days in treatments) | Normal RHE tissue viability as a percentage of untreated control (%) (Normal RHE tissue; 6 days in treatments) | impact on the viability of the RHE tissues (RHE tissues; dosing periods t=2, 6 and 24 h, 1% w/v N-H-G, 10% w/v L-Serine, 10% w/v Glycine) | ET-50 (exposure time to reduce viability to 50% of the control) (RHE tissues; 10% w/v N-H-S) [h] | ET-50 (exposure time to reduce viability to 50% of the control) (RHE tissues; 10% w/v N-H-S, listed as N-H-S) [h] | expected in vivo irritancy from ET-50 (RHE tissues; 10% w/v N-H-S, 1% w/v N-H-G, 10% w/v L-Serine, 10% w/v Glycine in water) |
| --- | --- | --- | --- | --- | --- | --- | --- |
| O=C(O)CNO [N-hydroxyglycine, N-Hydroxyglycine] | 97.9 | 91.5 | 93.3 | no significant impact | – | – | – |
| O=C(O)[C@H](CO)NO [N-hydroxyserine] | 83.4 | 91.5 | 86.9 | – | 12 to 24 | 22.8 | very mild (12-24 very mild) |
